According to patent US9961896B2, “Cleaning liquid” (priority 2013, dated 2018):

Assays:
Assay in all cases: EN 1276 bactericidal activity
Assay type in all cases: cell-based
Settings in all cases: diluted to 1:20 v/v; 5 minutes at 20° C.; dirty conditions
[1] = test system: Pseudomonas aeruginosa (NCI MB 10421)
[2] = test system: Escherichia coli (NCTC 10418)
[3] = test system: Enterococcus hirae (NCIMB 8192)
[4] = test system: Staphylococcus aureus (NCTC 10788)

Measured: passes the requirements of EN 1276 for bactericidal activity

Cc1cc(O)ccc1Cl [Acticide PCMC, P-chloro-m-cresol]
does not pass: all assays above

Benzalkonium chloride [Acticide BAC50M]
does not pass: all assays above

CCCCCCCCCC[N+](C)(C)CCCCCCCCCC.[Cl-] [Acticide DDQ50, Didecyl Dimethyl Ammonium Chloride]
does not pass: all assays above

O=[N+]([O-])C(Br)(CO)CO [Acticide L, Bronopol]
does not pass: all assays above
